Test results reported in US9061066B2 (priority 2010, dated 2015).

Legend:
[1] = test system: CD8+ OT-I T cells in C57B1/6 Ly5.1 mice; settings: mouse, in vivo, sc
mouse DCs [2] = assay type: cell-based
mouse DCs [3] = assay type: cell-based; remark: listed apart in the source

Poly I/C
OT-I T cell proliferation in the draining lymph node [1]: OT-I T cell proliferation

methyl-cyclodextrin [MβCD]
surface expression of CD80, CD86, CD40 and MHC class II, comparison of cyclic glucan structures (mouse DCs [2]): failed to significantly activate DC | TNF-alpha and IL-12 secretion, comparison of cyclic glucan structures (mouse DCs [3]): none of the cytokines were secreted
